Measurements reported in US12318399B2 (priority 2022, dated 2025).

Tests used:
[1] = tested on: endometrial cancer organoids; test: Patient-derived endometrial cancer organoid cell viability (CellTiter-Glo); assay type: cell-based, human; settings: for Flavonoids screening on endometrial cancer cell organoids, Average: viability normalized to vehicle = 100; for cell viability: FIG. 17B; for efficacy in combination with FSHE: combined with IC50 FSHE, FIG. 18; for Endometrial Cancer Average: vehicle = 100; for cell viability compared to the IC50 value: 75 μM in combination with BSHE at an IC50, FIG. 17A
Protocol: (§1) Development of patient derived organoids: The patient derived organoids were created as follows: the patient's tissue sample was collected after surgery and bathed in Hank's Balanced Salt Solution (HBSS) (Hyclone, SH30031.02) with 1% Pencillin/Streptomycin (P/S) (Life Technologies, 15070-063) on ice. Then the sample was washed three times with Dulbecco's phosphate-buffered saline (DPBS) and 1% P/S on a shaker (70 rpm) for 15 minutes each. The tissue was then transferred into a presterilized cell-culture hood to mince it finely with a sterile blade. All minced parts were then digested in an enzyme named Accumax (Innovative Cell Technologies Inc., AM105-500) for 2.5 hours at room temperature. After 2.5-hour incubation, the whole digested tissue mince was transferred in another enzyme, TrypLE express, (Gibco, 12604-021) for another 45 minutes in a 37° C. water bath. During this time the solution was continuously agitated in every 5 minutes interval. After 45 minutes of incubation, the solutions were passed through 70 μm filter on a 50 mL falcon tube. The filter was removed, and the flowthrough with the cells was collected in 5% FBS AD+++ medium (comprising 1% TS, 2% B27, 1% N2, 25% WRN, hegf 50 ng/ml, hfgf 10-100 ng/ml, Nicotinamide 1 mM, N-acetyl cysteine 1.25 mM, Primocin 0.2%, Estrogen 2 nm, A8301 0.5 μM, and Y27632). This cell suspension was centrifuged at 1000 rpm for 5 minutes at room temperature to get the cell pellet for counting. Upon checking under hemocytometer cell number was calculated and processed for organoid culture. After checking under a microscope if we found RBC contamination in the final cell suspension, then we used Red Blood Cell Lysis Buffer (Roche Diagnostics, 11814389001) to get rid of the excess RBC. Human patient cells from endometrial cancer were grown and maintained in a humidified chamber at 37° C. with 5% CO2.
(§2) To culture patient-derived organoids, 2-3×10^3 cells were plated in a prewarmed (37° C.) 96-well plate in […] of Matrigel (5% FBS AD+++ medium) per well. Individual patient cell organoid was cultured separately in different plates. Individual patient cells were handled separately to reduce the chance of cross-contamination. After mixing cells with Matrigel, […] droplets were placed in wells and put in a 37° C. incubator with 5% CO2 for 30 minutes. Upon solidification of the Matrigel droplet with cells inside, the plate was placed inside a sterile hood and immersed the Matrigel droplet in 200 μL of organoid growth media. Cells were allowed to grow into mature organoids for 14 days. […] All treatments were done in triplicate, including vehicle-only controls (Dimethyl sulfoxide in culture medium at the highest concentration used for drug treatments).
(§3) Note: IC50 is the 50% inhibitory concentration which is conventionally used to determine drug potency with cell-based cytotoxicity tests. Similarly, all of the antioxidants were tested under the same protocol.
(§4) To assess the cell viability in organoids after treatments, CellTiter-Glo® Luminescent Assay (Promega #G7572) was used. In brief, on day 14 of organoid culture, the matrigel droplet in each well with organoid inside was immersed in 100 μL of fresh growth media and 100 μL of CellTiter-Glo® reagent following the manufacturer's guideline. Blank wells containing only media and CellTiter-Glo® reagent (no cells) were also included in each plate. Then the plates were put on a shaker at 110 RPM at room temperature for […] minutes to induce cell lysis, followed by 25 minutes at room temperature to stabilize the luminescent signal. Each step after adding the CellTiter-Glo® reagent was performed in the dark. Luminescence was measured on a FLUOstar OPTIMA plate reader (BMG Lab technologies, Offenburg, Germany). Analysis was performed by normalizing treatment values to the vehicle control and plotting them as a percentage of the vehicle control.

[2] = oral formulations; cited from earlier work
ovarian cancer organoids = test: Patient-derived ovarian cancer organoid cell viability; assay type: cell-based, human; settings: vehicle = 100
Protocol: as §1
For the Ascites samples, we centrifuged the ascites fluid at 1000 rpm for 10 minutes at room temperature to get the cell suspension. The cell suspension was then treated with Red Blood Cell Lysis Buffer (Roche Diagnostics, 11814389001) to remove the RBC from the final cell suspension. Once samples were created, they were ready for testing, which included treating the organoids with cannabis extract. Additional cells were cultured in the same manner as above.
as §2, §3
To assess the cell viability in organoids after treatments, CellTiter-Glo® Luminescent Assay (Promega #G7572) was used. In brief, on day 14 of organoid culture, the matrigel droplet in each well with organoid inside was immersed in 100 μL of fresh growth media and 100 μL of CellTiter-Glo® reagent following the manufacturer's guideline. Blank wells containing only media and CellTiter-Glo® reagent (no cells) were also included in each plate. […]

endometriosis organoids = test: Endometriosis organoid cell viability; assay type: cell-based, human; parameters: key: % of vehicle control; settings: vehicle = 100
Protocol: as §2, §3
as §4, with “control. Drug IC50 values were determined by inhibitor vs normalized response-variable slope using least squares regression in Graphpad Prism 9.” for “control.”

## O=c1c(O)c(-c2ccccc2)oc2ccccc12 [3-hydroxyflavone]
[1]; 10 μM, monotherapy
  Flavonoids screening on endometrial cancer cell organoids, Average: 61.62
[1]; 20 μM, monotherapy
  Flavonoids screening on endometrial cancer cell organoids, Average: 48.26
[1]; 30 μM, monotherapy
  Flavonoids screening on endometrial cancer cell organoids, Average: 51.28
[1]; 40 μM, monotherapy
  Flavonoids screening on endometrial cancer cell organoids, Average: 41.00
[1]; 50 μM, monotherapy
  Flavonoids screening on endometrial cancer cell organoids, Average: 37.88
[1]; 60 μM, monotherapy
  Flavonoids screening on endometrial cancer cell organoids, Average: 35.89
[1]; 80 μM, monotherapy
  Flavonoids screening on endometrial cancer cell organoids, Average: 34.31
[1]; 100 μM, monotherapy
  Flavonoids screening on endometrial cancer cell organoids, Average: 34.65

## O=c1c(O)c(-c2ccccc2)oc2cc(O)cc(O)c12 [Galangin]
[1]; 10 μM, monotherapy
  Flavonoids screening on endometrial cancer cell organoids, Average: 98.74
[1]; 20 μM, monotherapy
  Flavonoids screening on endometrial cancer cell organoids, Average: 98.58
[1]; 30 μM, monotherapy
  Flavonoids screening on endometrial cancer cell organoids, Average: 96.96
[1]; 40 μM, monotherapy
  Flavonoids screening on endometrial cancer cell organoids, Average: 69.20
[1]; 50 μM, monotherapy
  Flavonoids screening on endometrial cancer cell organoids, Average: 49.62
[1]; 60 μM, monotherapy
  Flavonoids screening on endometrial cancer cell organoids, Average: 33.55
[1]; 80 μM, monotherapy
  Flavonoids screening on endometrial cancer cell organoids, Average: 25.66
[1]; 100 μM, monotherapy
  Flavonoids screening on endometrial cancer cell organoids, Average: 29.73

## O=c1cc(-c2ccc(O)c(O)c2)oc2cc(O)cc(O)c12 [Luteolin]
[1]; 10 μM, monotherapy
  Flavonoids screening on endometrial cancer cell organoids, Average: 90.54
[1]; 20 μM, monotherapy
  Flavonoids screening on endometrial cancer cell organoids, Average: 56.75
[1]; 30 μM, monotherapy
  Flavonoids screening on endometrial cancer cell organoids, Average: 33.96
[1]; 40 μM, monotherapy
  Flavonoids screening on endometrial cancer cell organoids, Average: 1.39
[1]; 50 μM, monotherapy
  Flavonoids screening on endometrial cancer cell organoids, Average: 0.00
[1]; 60 μM, monotherapy
  Flavonoids screening on endometrial cancer cell organoids, Average: 0.00
[1]; 80 μM, monotherapy
  Flavonoids screening on endometrial cancer cell organoids, Average: 0.00
[1]; 100 μM, monotherapy
  Flavonoids screening on endometrial cancer cell organoids, Average: 0.00

## O=c1c(O)c(-c2ccc(O)c(O)c2)oc2cc(O)cc(O)c12 [Quercetin]
[1]; 10 μM, monotherapy
  Flavonoids screening on endometrial cancer cell organoids, Average: 95.16
[1]; 20 μM, monotherapy
  Flavonoids screening on endometrial cancer cell organoids, Average: 89.43
[1]; 30 μM, monotherapy
  Flavonoids screening on endometrial cancer cell organoids, Average: 85.33
[1]; 40 μM, monotherapy
  Flavonoids screening on endometrial cancer cell organoids, Average: 58.16
[1]; 50 μM, monotherapy
  Flavonoids screening on endometrial cancer cell organoids, Average: 34.67
[1]; 60 μM, monotherapy
  Flavonoids screening on endometrial cancer cell organoids, Average: 25.59
[1]; 80 μM, monotherapy
  Flavonoids screening on endometrial cancer cell organoids, Average: 7.88
[1]; 100 μM, monotherapy
  Flavonoids screening on endometrial cancer cell organoids, Average: 0.00

## CCCCCc1cc(O)c2c(c1)OC(C)(C)[C@@H]1CCC(C)=C[C@@H]21 [THC, Δ-9-tetrahydrocannabinol]
[2]
  onset to reach peak concentration: ~120 min

## N.N.O=C([O-])C1(C(=O)[O-])CCC1.[Pt+2] [carboplatin, reference compound]
[1]; carboplatin alone
  relative improvement on increasing the chemotherapeutic drug by 5×: about 18%
[1]; carboplatin alone, 50 μg/mL (lowest dose)
  viability: about 50%
[1]; carboplatin alone, highest dose
  viability: about 32%

## O=c1cc(-c2ccccc2)oc2cc(O)cc(O)c12 [chrysin]
[1]; 10 μM combined with the IC50 of the BSHE
  cell viability: 3.04%
[1]; 10 μM, monotherapy, FIG. 16
  growth: 178.99%
[1]; 10 μM, with IC50 of BSHE
  change in viability, combination vs monotherapy: ~175%
[1]; 12.5 μM combined with the IC50 of the BSHE
  cell viability: ~0%
[1]; 25 μM, monotherapy, FIG. 16
  growth: 188.45%
[1]; 50 μM, monotherapy, FIG. 16
  growth: 125.21%
[1]; 100 μM, monotherapy, FIG. 16
  viability: 56.74
[1]
  efficacy in combination with FSHE: 2nd most effective combination

## O=c1c(O)c(-c2cc(O)c(O)c(O)c2)oc2cc(O)cc(O)c12 [myricetin]
Ovarian cancer organoids; 25 μM
  Ovarian Cancer Average: 88.60
Ovarian cancer organoids; 50 μM
  Ovarian Cancer Average: 84.68
Ovarian cancer organoids; 75 μM
  Ovarian Cancer Average: 78.36
Ovarian cancer organoids; 100 μM
  Ovarian Cancer Average: 38.95
Ovarian cancer organoids; 125 μM
  Ovarian Cancer Average: 13.49
Ovarian cancer organoids; 150 μM
  Ovarian Cancer Average: 2.97
Ovarian cancer organoids; 175 μM
  Ovarian Cancer Average: 0.00
Ovarian cancer organoids; 200 μM
  Ovarian Cancer Average: 0.00
[1]; 10 μM, with IC50 of BSHE
  reduction from its monotherapy: ~86%
[1]; Table 4, 10 μM
  Endometrial Cancer Average: 85.01
[1]; Table 4, 25 μM
  Endometrial Cancer Average: 54.50
[1]; Table 4, 50 μM
  Endometrial Cancer Average: 15.11
[1]; Table 4, 75 μM
  Endometrial Cancer Average: 4.98
[1]; Table 4, 100 μM
  Endometrial Cancer Average: 0.00
[1]; Table 4, 125 μM
  Endometrial Cancer Average: 0.00
[1]; Table 4, 150 μM
  Endometrial Cancer Average: 0.00
[1]; Table 4, 175 μM
  Endometrial Cancer Average: 0.00
[1]; Table 4, 200 μM
  Endometrial Cancer Average: 0.00
[1]; monotherapy, FIG. 16
  cell viability as a monotherapy: significantly reduced cell viability
Endometriosis organoids; 25 μM
  Endometriosis Average: 92.10
Endometriosis organoids; 50 μM
  Endometriosis Average: 91.37
Endometriosis organoids; 75 μM
  Endometriosis Average: 73.66
Endometriosis organoids; 100 μM
  Endometriosis Average: 18.33
Endometriosis organoids; 125 μM
  Endometriosis Average: 2.85
Endometriosis organoids; 150 μM
  Endometriosis Average: 0.00
Endometriosis organoids; 175 μM
  Endometriosis Average: 0.00
Endometriosis organoids; 200 μM
  Endometriosis Average: 0.00

## CC(=O)O[C@H]1C(=O)[C@@]2(C)[C@H]([C@H](OC(=O)c3ccccc3)[C@]3(O)C[C@H](OC(=O)[C@H](O)[C@@H](NC(=O)c4ccccc4)c4ccccc4)C(C)=C1C3(C)C)[C@]1(OC(C)=O)CO[C@@H]1C[C@@H]2O [paclitaxel, reference compound]
[1]; paclitaxel alone, 4 nm/ml to 20 nm/ml
  relative reduction in viability on increasing the dose by 5×: about 12%

## O=C1c2c(O)cc(O)cc2O[C@H](c2ccc(O)c(O)c2)[C@H]1O [taxifolin]
[1]; 50 μM, monotherapy, FIG. 16
  effect on cells as monotherapy: inducing cell proliferation
[1]
  cell viability compared to the IC50 value: significant reduction cell viability

## Cc1c(C)c2c(c(C)c1O)CC[C@@](C)(CCC[C@H](C)CCC[C@H](C)CCCC(C)C)O2 [tocopherol, reference compound]
[1]; 50 μM, monotherapy, FIG. 16
  effect on cells as monotherapy: inducing cell proliferation
[1]
  cell viability compared to the IC50 value: significant reduction cell viability
  efficacy in combination with FSHE: made the IC50 FSHE ineffective
[1]; monotherapy in DMSO
  impact on cell viability alone in the carrier: virtually no impact on cell viability

## C=C1CC/C=C(\C)CC[C@@H]2[C@@H]1CC2(C)C [β-caryophyllene, reference compound]
[1]; 50 μM, monotherapy, FIG. 16
  effect on cells as monotherapy: inducing cell proliferation
[1]
  cell viability compared to the IC50 value: significant reduction cell viability
